Source: PMC12123458, “Unraveling Small Molecule-Mediated Sirtuin 3 Activation at a Distinct Binding Site for Cardioprotective Therapies” (ACS Central Science, 2025)

How the values were obtained:
[1] = molecular target: T1, SIRT3 (Homo sapiens, UniProt Q9NTG7); test: Fluor de Lys (FDL) fluorimetric SIRT3 deacetylase activity assay; assay type: biochemical
T1 construct: purchased Enzo Life Sciences BML-AK557-0001
T1 sequence (Q9NTG7 1-399): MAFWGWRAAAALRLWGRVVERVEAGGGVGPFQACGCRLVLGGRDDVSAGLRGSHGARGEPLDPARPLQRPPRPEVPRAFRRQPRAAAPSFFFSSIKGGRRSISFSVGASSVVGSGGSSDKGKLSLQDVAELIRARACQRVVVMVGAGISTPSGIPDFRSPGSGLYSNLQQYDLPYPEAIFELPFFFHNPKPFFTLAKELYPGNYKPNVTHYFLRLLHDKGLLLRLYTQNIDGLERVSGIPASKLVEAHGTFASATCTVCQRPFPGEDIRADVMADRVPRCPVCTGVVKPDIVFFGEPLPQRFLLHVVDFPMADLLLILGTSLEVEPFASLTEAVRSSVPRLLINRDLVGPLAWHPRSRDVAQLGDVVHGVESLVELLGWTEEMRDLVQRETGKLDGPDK
Protocol: The SIRT3 activity was assessed using the Enzo Life Sciences kit (BML-AK557-0001) per the protocol provided. A 10 μM fluoro-acetylated p53 peptide and 500 μM NAD^+ were added to SIRT3 assay buffer, incubated with test compounds and 0.5 μg recombinant SIRT3 at 37 °C for 30 min. In the mass spectrometry (MS) assay, 5 μM hSirt3 was reacted with 0.25 mM peptide and 1.25 mM NAD^+, with or without 10 μM SKLB-11A in 2% DMSO, at 37 °C. Controls included 2% DMSO without SKLB-11A. The reaction was halted at defined intervals using 5 mM nicotinamide, and the mixture then underwent filtration and subjected to nano LC-MS/MS analysis. Acetylated Peptide: MnSOD-K122 ([…]-Ac).

[2] = system: Dox-induced cardiotoxicity model; test: Mouse model of doxorubicin-induced cardiomyopathy; assay type: in vivo
Protocol: For the establishment of the experimental model, male C57BL/6J mice aged 8 weeks, with an average weight of 23 g, were utilized. The mice were administered varying dosages of SKLB-11A (10 and 20 mg/kg/day) or a corresponding volume of sterile saline via oral gavage over a period of 7 days. […] The sample size for each group consisted of eight specimens. Echocardiographic assessments were conducted at three distinct time points: baseline (day 0), post-treatment (day 7), and at the conclusion of the study (day 21). The experimental timeline was terminated on day 21.
Noninvasive transthoracic echocardiography was performed using a Vevo 3100 System with a 30-MHz transducer to assess cardiac function in mice. The procedure was conducted by an experienced technician who was blinded to the study groups. Mice were anesthetized with 1.5–2% isoflurane and underwent skin preparation. Two-dimensional guided M-mode echocardiography in the short axis view was used to measure left ventricular fractional shortening (FS) and left ventricular ejection fraction (EF).
H&E staining was used to evaluate pathological changes in key organs. Fixed tissues were dehydrated, embedded in paraffin, and sectioned into 4 μm slices. The sections were stained with hematoxylin for 10–15 min, washed with tap water for 2 min, differentiated for 30 s using hydrochloric acid and ethanol, and then washed with warm water for 5 min. After staining with eosin for 2 min, the sections were dehydrated and mounted with resin. All procedures followed the standard operating procedure (SOP) for pathological examination.

[3] = molecular target: T2, SIRT1 (Rattus norvegicus, UniProt A0A0G2JZ79); test: CETSA of SIRT1 in H9c2 cells; assay type: cell-based
T2 construct: endogenous in cells; host or cells: H9c2
T2 sequence (A0A0G2JZ79 1-741): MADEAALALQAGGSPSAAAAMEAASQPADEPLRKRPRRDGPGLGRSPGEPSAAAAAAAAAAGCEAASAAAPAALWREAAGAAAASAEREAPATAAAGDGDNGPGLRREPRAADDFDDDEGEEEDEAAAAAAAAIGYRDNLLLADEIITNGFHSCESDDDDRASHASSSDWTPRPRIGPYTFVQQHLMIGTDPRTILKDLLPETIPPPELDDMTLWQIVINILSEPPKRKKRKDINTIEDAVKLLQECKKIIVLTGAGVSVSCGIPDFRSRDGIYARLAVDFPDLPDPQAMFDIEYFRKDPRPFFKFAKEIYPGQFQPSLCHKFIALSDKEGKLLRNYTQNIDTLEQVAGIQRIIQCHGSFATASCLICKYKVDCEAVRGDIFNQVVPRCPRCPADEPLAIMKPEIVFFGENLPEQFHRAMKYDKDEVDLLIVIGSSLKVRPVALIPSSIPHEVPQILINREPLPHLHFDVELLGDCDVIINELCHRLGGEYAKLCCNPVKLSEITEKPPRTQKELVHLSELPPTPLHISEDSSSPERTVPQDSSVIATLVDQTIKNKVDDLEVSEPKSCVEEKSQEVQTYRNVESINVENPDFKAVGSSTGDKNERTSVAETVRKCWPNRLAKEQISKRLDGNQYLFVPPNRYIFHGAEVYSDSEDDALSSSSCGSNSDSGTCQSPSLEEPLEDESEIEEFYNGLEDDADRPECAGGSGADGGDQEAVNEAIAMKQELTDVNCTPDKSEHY

[4] = system: H9c2 cells; test: OGD/R injury model in vitro; assay type: cell-based; details: pretreatment for 24 h, 10 μM
Protocol: An in vitro oxygen-glucose deprivation (OGD) injury model was established as described in a previous study. OGD injury was induced by incubating cells in glucose-free DMEM under hypoxic conditions (94% N2, 1% O2, and 5% CO2) for 6 h. Before the hypoxic phase, cells were treated with SKLB-11A (10 μM). The cells were then incubated in normoxic conditions with normal medium at 37 °C for the indicated time of 24 h as reperfusion. Untreated cells were used as controls.

[5] = system: acetylated MnSOD (K68 and K122) in H9c2 cells; test: Western blot of MnSOD, SIRT3 and acetylated MnSOD in H9c2 cells; assay type: cell-based; details: 24 h
Protocol: Proteomic analysis was conducted on H9c2 cells and murine cardiac tissues. Protein lysates were resolved via SDS-PAGE and transferred onto PVDF membranes. […] After washing, membranes were probed with secondary antibodies for 1 h at room temperature. Detection was facilitated by an ECL kit, with densitometry performed using ImageJ software to quantify protein expression, normalized against controls. The antibodies employed included: anti-SIRT3 (2627, Cell Signaling Technology), anti-acetylated lysine (9441, CST), anti-Ac.K68-MnSOD2 (ab137037, Abcam), anti-Ac.K122-MnSOD2 (ab214675, Abcam), anti-MnSOD2 (13141, CST), anti-LC3B (3868, CST), anti-p62 (8025, CST), anti-PINK1 (6946, CST), anti-Parkin (4211, CST), and anti-β-actin (ab8226, Abcam).

For `COC(=O)c1c(N)n(Cc2ccc(F)cc2)c2nc3ccccc3nc12` [SKLB-11A, Methyl 2-amino-1-(4-fluorobenzyl)-1H-pyrrolo[2,3-b]quinoxaline-3-carboxylate], the “% effect @ 100 µM of SIRT3” value ([1]; 100 µM, FDL deacetylation assay, compared to the control group, mean ± SD) was “maintained or enhanced the activity”, the activity at 100 µM ([1]; 0.5 h, 100 µM, FDL deacetylation assay, compared to the control group, mean ± SD, read-out: % effect @ 100 µM of SIRT3) was 188.1 ± 1.58% and the “SIRT3 activation compared with other SIRT3 activators” value ([1]; FDL assay) was “better SIRT3 activation”. For the same compound, the EC50 ([1]; FDL assay, read-out: EC50, SIRT3 deacetylation activity) was 22 ± 1.57 µM, the “left ventricular ejection fraction (EF) and fractional shortening (FS)” value ([2]; 10 or 20 mg/kg, ig, pretreatment, Dox mice, dose-dependent) was “significantly restored” and the “body weight (Dox-induced weight loss)” value ([2]; Dox mice) was “partially reversed Dox-induced weight loss”. The “mitochondrial respiration (basal and maximal) in heart tissues” value ([2]; Dox mice) was “restored mitochondrial respiration”, the “serum markers of myocardial injury LDH, CK-MB, BNP” value ([2]; Dox mice) was “reduced serum markers of myocardial injury” and the “myocardial structure, histology” value ([2]; Dox mice, H&E) was “preserved myocardial structure”. For the same compound, the “toxicity at effective doses, organ histology (heart, liver, spleen, lungs, kidneys)” value ([2]; mice, H&E) was “no apparent toxicity”, the “thermal stability of SIRT1 (CETSA)” value [3] was “little effect on the thermal stability” and the OGD/R-induced mitochondrial dysfunction [4] was “significantly ameliorated”. For the same compound, the SIRT3 protein levels [5] was “did not alter SIRT3 protein levels” and the “deacetylation of MnSOD at K122 and K68” value [5] was “induced deacetylation at K122 and K68”.
